From ChEMBL document CHEMBL1201862, “PubChem BioAssay data set” (2004)
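Cultured in 96-well plates, cells were exposed to test compound for 48 hours across five concentrations. GI50 = concentration required for 50% inhibition of growth.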 Calls of active or inactive are those of the source. Cut-off read from the data, not from the text of the source: active = GI50 up to about 1.1 µM and inactive = higher.

Key:
Assay in all cases: DTP human tumour cell line panel, 48 h
786-0 = system: 786-0
SN12C = system: SN12C
HOP-62 = system: HOP-62
UACC-257 = system: UACC-257
SNB-75 = system: SNB-75
MOLT-4 = system: MOLT-4
NCI-H522 = system: NCI-H522
RXF 393 = system: RXF 393
SK-OV-3 = system: SK-OV-3
Hs-578T = system: Hs-578T
SNB-19 = system: SNB-19
HT-29 = system: HT-29
SW-620 = system: SW-620
KM12 = system: KM12
OVCAR-8 = system: OVCAR-8
HL-60 = system: HL-60
NCI-H460 = system: NCI-H460
UO-31 = system: UO-31
SR = system: SR
HOP-92 = system: HOP-92

Compound | GI50 (786-0) | GI50 (SN12C) | GI50 (HOP-62) | GI50 (UACC-257) | GI50 (SNB-75) | GI50 (MOLT-4) | GI50 (NCI-H522) | GI50 (RXF 393) | GI50 (SK-OV-3) | GI50 (Hs-578T) | GI50 (SNB-19) | GI50 (HT-29) | GI50 (SW-620) | GI50 (KM12) | GI50 (OVCAR-8) | GI50 (HL-60) | GI50 (NCI-H460) | GI50 (UO-31) | GI50 (SR) | GI50 (HOP-92)
NC1=Nc2ccccc2Sc2nnc(-c3ccc(Cl)cc3)n21 | 24 µM (inactive) | 38.1 µM (inactive) | 23.7 µM (inactive) | > 100 µM (inactive) | 17.3 µM (inactive) | 13.9 µM (inactive) | 8.18 µM (inactive) | 22.8 µM (inactive) | > 100 µM (inactive) | 35.2 µM (inactive) | 46.8 µM (inactive) | > 100 µM (inactive) | 57.1 µM (inactive) | 98.2 µM (inactive) | 26.7 µM (inactive) | 8.59 µM (inactive) | 21.9 µM (inactive) | > 100 µM (inactive) | 11.2 µM (inactive) | 68.2 µM (inactive)
O=[N+]([O-])c1ccc(C2=Nn3c(nnc3-c3ccc(Cl)cc3)SC2)o1 | 10 µM (inactive) | 8.38 µM (inactive) | 9.12 µM (inactive) | 7.38 µM (inactive) | 11.5 µM (inactive) | 3.28 µM (inactive) | 0.923 µM (active) | 11.5 µM (inactive) | 19.3 µM (inactive) | 5.83 µM (inactive) | 13.3 µM (inactive) | 3.22 µM (inactive) | 2.37 µM (inactive) | 7.93 µM (inactive) | 9.91 µM (inactive) | 0.989 µM (active) | 6.75 µM (inactive) | 3.5 µM (inactive) | 0.394 µM (active) | 3.29 µM (inactive)
COc1c(O)ccc2c1CN1CCc3cc4c(cc3C1C2)OCO4 (stereo not drawn) | 23.9 µM (inactive) | 27.7 µM (inactive) | 36.4 µM (inactive) | 31 µM (inactive) | 14.5 µM (inactive) | 2.43 µM (inactive) | 7.43 µM (inactive) | 12.6 µM (inactive) | 23.1 µM (inactive) | 27.4 µM (inactive) | 31.3 µM (inactive) | 32.7 µM (inactive) | 29.9 µM (inactive) | 22.1 µM (inactive) | 33.9 µM (inactive) | 20 µM (inactive) | 18.4 µM (inactive) | 29.6 µM (inactive) | 0.441 µM (active) | 51.8 µM (inactive)
CSC(=S)Nc1cccc(C)n1 | > 100 µM (inactive) | > 100 µM (inactive) | > 100 µM (inactive) | > 100 µM (inactive) | > 100 µM (inactive) | > 100 µM (inactive) | > 100 µM (inactive) | > 100 µM (inactive) | > 100 µM (inactive) | > 100 µM (inactive) | > 100 µM (inactive) | > 100 µM (inactive) | > 100 µM (inactive) | > 100 µM (inactive) | > 100 µM (inactive) | > 100 µM (inactive) | > 100 µM (inactive) | > 100 µM (inactive) | > 100 µM (inactive) | > 100 µM (inactive)
Cc1ccc(/N=C/C=C(\Nc2ccc(C)cc2)c2ccc3ccccc3c2)cc1 | 0.757 µM (active) | – | 0.912 µM (active) | 0.501 µM (active) | 0.468 µM (active) | 0.237 µM (active) | 2.74 µM (inactive) | 0.521 µM (active) | 0.731 µM (active) | 0.753 µM (active) | 1.68 µM (inactive) | 0.347 µM (active) | 0.445 µM (active) | 0.299 µM (active) | > 100 µM (inactive) | 0.34 µM (active) | 0.489 µM (active) | 1.07 µM (active) | 0.39 µM (active) | 10.6 µM (inactive)
COc1ccc(-c2c3c(cc4cc5c(cc24)OCO5)C(=O)OC3)cc1OC | 2.12 µM (inactive) | 0.488 µM (active) | 0.313 µM (active) | 2.07 µM (inactive) | 6.92 µM (inactive) | 3.62 µM (inactive) | 0.392 µM (active) | 2.9 µM (inactive) | 13.4 µM (inactive) | 6.22 µM (inactive) | 16.1 µM (inactive) | 0.215 µM (active) | 2.19 µM (inactive) | 1.77 µM (inactive) | 0.24 µM (active) | 0.271 µM (active) | 0.222 µM (active) | 3.15 µM (inactive) | 0.0299 µM (active) | 0.771 µM (active)
COc1cc(CNC(=O)CCCCCCCCCCSSCCCCCCCCCCC(=O)NCc2ccc(O)c(OC)c2)ccc1O | > 10 µM (inactive) | > 10 µM (inactive) | > 10 µM (inactive) | > 10 µM (inactive) | > 10 µM (inactive) | > 10 µM (inactive) | 0.918 µM (active) | 0.184 µM (active) | > 10 µM (inactive) | > 10 µM (inactive) | > 10 µM (inactive) | > 10 µM (inactive) | > 10 µM (inactive) | > 10 µM (inactive) | > 10 µM (inactive) | > 10 µM (inactive) | > 10 µM (inactive) | – | > 10 µM (inactive) | > 10 µM (inactive)
COc1cc2oc(=O)cc(C)c2cc1O | > 100 µM (inactive) | > 100 µM (inactive) | > 100 µM (inactive) | > 100 µM (inactive) | > 100 µM (inactive) | > 100 µM (inactive) | > 100 µM (inactive) | > 100 µM (inactive) | – | > 100 µM (inactive) | > 100 µM (inactive) | > 100 µM (inactive) | > 100 µM (inactive) | > 100 µM (inactive) | > 100 µM (inactive) | > 100 µM (inactive) | > 100 µM (inactive) | 54.5 µM (inactive) | > 100 µM (inactive) | 46.3 µM (inactive)
O=C(CN1CCCCC1)CC(O)(C(F)(F)F)C(F)(F)F | > 100 µM (inactive) | – | – | > 100 µM (inactive) | 20.5 µM (inactive) | – | > 100 µM (inactive) | > 100 µM (inactive) | > 100 µM (inactive) | 95.9 µM (inactive) | > 100 µM (inactive) | > 100 µM (inactive) | > 100 µM (inactive) | > 100 µM (inactive) | > 100 µM (inactive) | > 100 µM (inactive) | > 100 µM (inactive) | > 100 µM (inactive) | > 100 µM (inactive) | > 100 µM (inactive)
CN(C)c1ccc(/C=N\NC(=O)Nc2cccc3ccccc23)cc1 | 5.74 µM (inactive) | 11.8 µM (inactive) | 8.67 µM (inactive) | 3.74 µM (inactive) | 9.02 µM (inactive) | 4.56 µM (inactive) | 2.08 µM (inactive) | 20.7 µM (inactive) | – | 4.17 µM (inactive) | 2.46 µM (inactive) | 2.62 µM (inactive) | 6.11 µM (inactive) | 2.61 µM (inactive) | 14.9 µM (inactive) | 2.03 µM (inactive) | 4.31 µM (inactive) | 13.2 µM (inactive) | 1.6 µM (inactive) | 20.3 µM (inactive)
O=C(CC(=O)N1N=C(N2CCCCC2)CC1c1ccccc1)Nc1ccccc1 (stereo not drawn) | > 100 µM (inactive) | > 100 µM (inactive) | > 100 µM (inactive) | > 100 µM (inactive) | > 100 µM (inactive) | > 100 µM (inactive) | > 100 µM (inactive) | > 100 µM (inactive) | – | > 100 µM (inactive) | > 100 µM (inactive) | > 100 µM (inactive) | > 100 µM (inactive) | > 100 µM (inactive) | > 100 µM (inactive) | > 100 µM (inactive) | > 100 µM (inactive) | > 100 µM (inactive) | > 100 µM (inactive) | 91 µM (inactive)
Cc1ccc(NNc2cc(=O)[nH]c(=O)[nH]2)cc1Cl | 14.6 µM (inactive) | > 100 µM (inactive) | 71.9 µM (inactive) | 17.5 µM (inactive) | > 100 µM (inactive) | 4.98 µM (inactive) | 16.5 µM (inactive) | 16.5 µM (inactive) | 41.4 µM (inactive) | 83.2 µM (inactive) | 24.4 µM (inactive) | 15 µM (inactive) | 14.4 µM (inactive) | 27.3 µM (inactive) | – | 3.08 µM (inactive) | 33.2 µM (inactive) | 3.25 µM (inactive) | 12.1 µM (inactive) | 14.4 µM (inactive)
S=C(N/N=C(/c1ccccc1)c1ccccn1)N1CCCCC1 | < 0.0286 µM (active) | – | 0.0785 µM (active) | < 0.0183 µM (active) | 1.25 µM (inactive) | < 0.0135 µM (active) | < 0.0344 µM (active) | 1.28 µM (inactive) | < 0.0387 µM (active) | 0.237 µM (active) | 0.966 µM (active) | < 0.016 µM (active) | < 0.0226 µM (active) | < 0.0292 µM (active) | < 0.0281 µM (active) | 0.01 µM (active) | < 0.0211 µM (active) | 0.0716 µM (active) | < 0.0166 µM (active) | 0.546 µM (active)
CC[C@@H]1CC[C@@H]2[C@H](CC[C@]3(C)[C@@H](O[N+](=O)[O-])CC[C@@H]23)[C@H]1C(C)=O | 50.7 µM (inactive) | 43.3 µM (inactive) | 46.3 µM (inactive) | 20 µM (inactive) | 27.6 µM (inactive) | 24.3 µM (inactive) | 28.8 µM (inactive) | 28.2 µM (inactive) | – | 44.7 µM (inactive) | 56.5 µM (inactive) | 13.1 µM (inactive) | 40.4 µM (inactive) | 17.3 µM (inactive) | 37.2 µM (inactive) | 13.5 µM (inactive) | 27.4 µM (inactive) | 24.6 µM (inactive) | 25.6 µM (inactive) | 21.6 µM (inactive)
Nc1nc(S)c2c(N)n[nH]c2c1C(=O)Nc1ccccc1 | > 100 µM (inactive) | > 100 µM (inactive) | – | > 100 µM (inactive) | > 100 µM (inactive) | > 100 µM (inactive) | > 100 µM (inactive) | > 100 µM (inactive) | > 100 µM (inactive) | > 100 µM (inactive) | > 100 µM (inactive) | > 100 µM (inactive) | > 100 µM (inactive) | 65.5 µM (inactive) | > 100 µM (inactive) | > 100 µM (inactive) | > 100 µM (inactive) | > 100 µM (inactive) | 13.9 µM (inactive) | > 100 µM (inactive)
